Test results reported in ChEMBL document CHEMBL5131410, “Design and discovery of C2-fluoroalkyl iminothiazine dioxides as BACE inhibitors” (Bioorg Med Chem Lett, 2022).
Each block holds one molecule with its values, some of them ahead of it.

How the values were obtained:
[1] = molecular target: T1, Beta-secretase 1 (Homo sapiens, UniProt P56817); assay: Inhibition of BACE1 (unknown origin) expressed in HEK293 cells expressing human APP with Swedish and London familial AD mutation; format: cell-based
T1 sequence (P56817 whole entry): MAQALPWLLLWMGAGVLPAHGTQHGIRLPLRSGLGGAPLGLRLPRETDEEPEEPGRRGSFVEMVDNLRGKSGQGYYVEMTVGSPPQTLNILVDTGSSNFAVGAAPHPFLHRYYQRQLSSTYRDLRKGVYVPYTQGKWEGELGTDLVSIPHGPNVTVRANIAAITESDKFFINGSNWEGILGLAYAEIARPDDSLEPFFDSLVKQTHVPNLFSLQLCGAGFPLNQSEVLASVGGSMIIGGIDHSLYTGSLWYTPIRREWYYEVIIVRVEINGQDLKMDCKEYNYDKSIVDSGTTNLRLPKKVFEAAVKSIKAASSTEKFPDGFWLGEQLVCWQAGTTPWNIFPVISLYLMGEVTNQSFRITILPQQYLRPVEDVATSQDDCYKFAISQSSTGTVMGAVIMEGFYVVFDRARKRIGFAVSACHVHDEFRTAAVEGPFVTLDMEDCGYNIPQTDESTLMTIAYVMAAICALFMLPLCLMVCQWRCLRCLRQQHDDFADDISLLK

[2] = molecular target: T1, Beta-secretase 1; assay: Inhibition of BACE1 (unknown origin)
[3] = test system: Rattus norvegicus; assay: Antialzheimer activity against in rat assessed as decrease in amyloid beta 40 in CSF at 10 mg/kg, po and measured after 3 hrs relative to control; format: functional; parameters: scale not given: the % may be the effect or the level left
[4] = molecular target: Sodium channel protein type 2 subunit alpha (Homo sapiens, UniProt Q99250); assay: Inhibition of NaV1.2 (unknown origin)
[5] = test system: Rattus norvegicus; assay: Antialzheimer activity against in po dosed rat assessed as decrease in amyloid beta 40 in CSF measured after 3 hrs; format: functional
[6] = molecular target: T2, Cathepsin E (Homo sapiens, UniProt P14091); assay: Inhibition of human cathepsin E
T2 sequence (P14091 whole entry): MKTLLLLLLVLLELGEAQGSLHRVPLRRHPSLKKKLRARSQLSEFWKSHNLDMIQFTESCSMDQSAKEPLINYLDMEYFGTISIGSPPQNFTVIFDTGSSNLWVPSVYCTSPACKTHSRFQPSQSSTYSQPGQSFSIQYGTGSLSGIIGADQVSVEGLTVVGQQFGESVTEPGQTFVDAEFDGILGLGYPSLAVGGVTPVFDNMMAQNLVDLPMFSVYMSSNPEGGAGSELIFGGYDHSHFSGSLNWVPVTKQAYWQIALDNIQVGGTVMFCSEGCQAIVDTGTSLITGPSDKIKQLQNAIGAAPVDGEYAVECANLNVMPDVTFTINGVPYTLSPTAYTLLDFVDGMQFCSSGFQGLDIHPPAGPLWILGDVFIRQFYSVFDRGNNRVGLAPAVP

[7] = molecular target: T3, Renin (Homo sapiens, UniProt P00797); assay: Inhibition of human renin
T3 sequence (P00797 whole entry): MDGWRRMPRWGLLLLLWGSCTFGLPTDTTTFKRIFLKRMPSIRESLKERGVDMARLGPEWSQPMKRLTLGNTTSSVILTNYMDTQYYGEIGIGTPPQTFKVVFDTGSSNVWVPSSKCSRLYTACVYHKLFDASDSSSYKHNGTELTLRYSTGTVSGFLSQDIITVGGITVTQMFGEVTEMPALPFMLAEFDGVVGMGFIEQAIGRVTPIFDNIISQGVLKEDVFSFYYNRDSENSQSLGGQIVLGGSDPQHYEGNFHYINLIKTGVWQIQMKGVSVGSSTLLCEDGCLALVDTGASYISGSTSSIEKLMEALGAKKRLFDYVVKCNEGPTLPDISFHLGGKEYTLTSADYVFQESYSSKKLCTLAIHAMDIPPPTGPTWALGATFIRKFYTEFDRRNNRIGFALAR

[8] = molecular target: Cathepsin D (Homo sapiens, UniProt P07339); assay: Inhibition of human cathepsin D
Cathepsin D, sequence (P07339 65-162 limits assumed): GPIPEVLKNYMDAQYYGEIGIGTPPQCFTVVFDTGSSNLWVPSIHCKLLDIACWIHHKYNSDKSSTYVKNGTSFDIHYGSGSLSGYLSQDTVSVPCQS
Cathepsin D, sequence (P07339 169-412 limits assumed): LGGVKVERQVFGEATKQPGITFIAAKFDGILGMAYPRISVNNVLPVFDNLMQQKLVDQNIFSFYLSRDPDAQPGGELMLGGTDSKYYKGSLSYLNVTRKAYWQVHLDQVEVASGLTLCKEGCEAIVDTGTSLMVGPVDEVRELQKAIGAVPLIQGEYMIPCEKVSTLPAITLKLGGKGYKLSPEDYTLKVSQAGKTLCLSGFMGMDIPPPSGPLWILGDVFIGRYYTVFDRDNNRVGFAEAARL

[9] = test system: Rhesus monkey; assay: Antialzheimer activity against in po dosed rhesus monkey assessed as decrease in amyloid beta 40 in CSF measured after 3 hrs; format: functional; details: Macaca mulatta
[10] = test system: Rattus norvegicus; assay: Antialzheimer activity against in po dosed rat assessed as plasma concentration required to 50 % decrease in amyloid beta 40 in CSF measured after 3 hrs; format: functional, organism-based
[11] = molecular target: Voltage-dependent L-type calcium channel subunit alpha-1C (Homo sapiens, UniProt Q13936); assay: Inhibition of CAV1.2 (unknown origin)
Voltage-dependent L-type calcium channel subunit alpha-1C, sequence (Q13936 whole entry): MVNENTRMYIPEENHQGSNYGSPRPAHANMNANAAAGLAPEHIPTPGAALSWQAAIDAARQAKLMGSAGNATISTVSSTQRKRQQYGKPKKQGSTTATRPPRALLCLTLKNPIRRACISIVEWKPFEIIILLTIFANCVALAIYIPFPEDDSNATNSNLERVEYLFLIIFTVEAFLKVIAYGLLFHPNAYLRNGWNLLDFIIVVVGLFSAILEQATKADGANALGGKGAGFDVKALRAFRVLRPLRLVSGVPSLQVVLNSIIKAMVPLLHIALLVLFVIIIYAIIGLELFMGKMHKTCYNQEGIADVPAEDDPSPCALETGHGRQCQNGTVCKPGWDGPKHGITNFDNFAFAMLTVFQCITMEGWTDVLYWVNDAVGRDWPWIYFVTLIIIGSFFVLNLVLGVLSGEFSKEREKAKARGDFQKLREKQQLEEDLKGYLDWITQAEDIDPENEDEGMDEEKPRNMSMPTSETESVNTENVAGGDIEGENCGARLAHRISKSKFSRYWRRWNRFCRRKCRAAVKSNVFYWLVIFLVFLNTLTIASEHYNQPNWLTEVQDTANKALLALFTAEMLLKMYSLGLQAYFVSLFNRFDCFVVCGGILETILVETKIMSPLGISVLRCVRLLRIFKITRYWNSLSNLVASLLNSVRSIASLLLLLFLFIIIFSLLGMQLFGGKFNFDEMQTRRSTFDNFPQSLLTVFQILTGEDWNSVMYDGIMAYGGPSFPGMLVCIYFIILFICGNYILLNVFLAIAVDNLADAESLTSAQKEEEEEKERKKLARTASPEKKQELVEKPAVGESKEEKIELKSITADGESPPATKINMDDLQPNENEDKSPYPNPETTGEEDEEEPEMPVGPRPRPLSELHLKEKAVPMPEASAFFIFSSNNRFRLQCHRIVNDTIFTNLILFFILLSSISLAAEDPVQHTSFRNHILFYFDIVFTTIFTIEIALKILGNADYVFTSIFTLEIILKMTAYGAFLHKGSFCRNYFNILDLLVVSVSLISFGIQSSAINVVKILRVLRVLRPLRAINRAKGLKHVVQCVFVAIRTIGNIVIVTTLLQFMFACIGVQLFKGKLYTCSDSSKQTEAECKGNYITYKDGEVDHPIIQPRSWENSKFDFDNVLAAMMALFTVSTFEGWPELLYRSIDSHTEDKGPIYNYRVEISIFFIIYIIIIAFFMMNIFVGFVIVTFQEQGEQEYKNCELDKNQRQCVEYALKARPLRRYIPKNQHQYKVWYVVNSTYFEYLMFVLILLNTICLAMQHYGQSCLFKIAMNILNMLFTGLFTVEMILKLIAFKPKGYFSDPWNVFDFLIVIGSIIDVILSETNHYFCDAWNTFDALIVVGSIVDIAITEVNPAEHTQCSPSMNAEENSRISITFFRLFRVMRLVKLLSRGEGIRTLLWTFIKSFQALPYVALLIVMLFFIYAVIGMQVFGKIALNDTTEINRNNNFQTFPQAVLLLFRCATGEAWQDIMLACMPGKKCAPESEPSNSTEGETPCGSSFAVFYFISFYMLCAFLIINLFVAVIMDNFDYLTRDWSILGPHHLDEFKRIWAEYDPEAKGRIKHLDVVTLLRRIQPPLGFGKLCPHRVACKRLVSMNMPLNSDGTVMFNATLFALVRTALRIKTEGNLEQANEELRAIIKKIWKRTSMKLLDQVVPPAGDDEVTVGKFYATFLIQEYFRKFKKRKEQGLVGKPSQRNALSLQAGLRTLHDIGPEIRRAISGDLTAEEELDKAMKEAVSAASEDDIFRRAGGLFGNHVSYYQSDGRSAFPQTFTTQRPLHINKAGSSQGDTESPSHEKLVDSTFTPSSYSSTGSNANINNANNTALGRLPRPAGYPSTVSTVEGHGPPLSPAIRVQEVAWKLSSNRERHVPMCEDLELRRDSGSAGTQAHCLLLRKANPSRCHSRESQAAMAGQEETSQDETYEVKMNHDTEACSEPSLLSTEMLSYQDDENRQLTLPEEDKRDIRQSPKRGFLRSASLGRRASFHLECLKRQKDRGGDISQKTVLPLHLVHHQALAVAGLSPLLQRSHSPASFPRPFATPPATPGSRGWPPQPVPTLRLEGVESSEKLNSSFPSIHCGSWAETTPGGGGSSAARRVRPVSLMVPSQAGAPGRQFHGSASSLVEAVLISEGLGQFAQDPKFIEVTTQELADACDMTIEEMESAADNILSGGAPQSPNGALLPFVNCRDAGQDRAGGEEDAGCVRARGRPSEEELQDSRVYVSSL

[12] = test system: Rhesus monkey; assay: Antialzheimer activity against in po dosed rhesus monkey assessed as plasma concentration required to 50 % decrease in amyloid beta 40 in CSF measured after 3 hrs; format: functional, organism-based; details: Macaca mulatta
[13] = test system: MDR1 (rat); assay: Efflux ratio of apparent permeability across basolateral to apical membrane to apical to basolateral membrane in pig LLC-PK1 cells expressing rat MDR1 at 1 uM; format: ADME, cell-based, Sus scrofa
[14] = Dissociation constant, pKa of compound by UV-metric spectrophotometric analysis; format: physicochemical
[15] = Apparent permeability in pig LLC-PK1 cells; format: ADME, cell-based, Sus scrofa
[16] = molecular target: T4, Voltage-gated inwardly rectifying potassium channel KCNH2 (Homo sapiens, UniProt Q12809); assay: Displacement of MK499 from human ERG expressed in HEK membrane by radio ligand binding competition assay; format: toxicity, cell membranes, Cell membrane
T4 sequence (Q12809 whole entry): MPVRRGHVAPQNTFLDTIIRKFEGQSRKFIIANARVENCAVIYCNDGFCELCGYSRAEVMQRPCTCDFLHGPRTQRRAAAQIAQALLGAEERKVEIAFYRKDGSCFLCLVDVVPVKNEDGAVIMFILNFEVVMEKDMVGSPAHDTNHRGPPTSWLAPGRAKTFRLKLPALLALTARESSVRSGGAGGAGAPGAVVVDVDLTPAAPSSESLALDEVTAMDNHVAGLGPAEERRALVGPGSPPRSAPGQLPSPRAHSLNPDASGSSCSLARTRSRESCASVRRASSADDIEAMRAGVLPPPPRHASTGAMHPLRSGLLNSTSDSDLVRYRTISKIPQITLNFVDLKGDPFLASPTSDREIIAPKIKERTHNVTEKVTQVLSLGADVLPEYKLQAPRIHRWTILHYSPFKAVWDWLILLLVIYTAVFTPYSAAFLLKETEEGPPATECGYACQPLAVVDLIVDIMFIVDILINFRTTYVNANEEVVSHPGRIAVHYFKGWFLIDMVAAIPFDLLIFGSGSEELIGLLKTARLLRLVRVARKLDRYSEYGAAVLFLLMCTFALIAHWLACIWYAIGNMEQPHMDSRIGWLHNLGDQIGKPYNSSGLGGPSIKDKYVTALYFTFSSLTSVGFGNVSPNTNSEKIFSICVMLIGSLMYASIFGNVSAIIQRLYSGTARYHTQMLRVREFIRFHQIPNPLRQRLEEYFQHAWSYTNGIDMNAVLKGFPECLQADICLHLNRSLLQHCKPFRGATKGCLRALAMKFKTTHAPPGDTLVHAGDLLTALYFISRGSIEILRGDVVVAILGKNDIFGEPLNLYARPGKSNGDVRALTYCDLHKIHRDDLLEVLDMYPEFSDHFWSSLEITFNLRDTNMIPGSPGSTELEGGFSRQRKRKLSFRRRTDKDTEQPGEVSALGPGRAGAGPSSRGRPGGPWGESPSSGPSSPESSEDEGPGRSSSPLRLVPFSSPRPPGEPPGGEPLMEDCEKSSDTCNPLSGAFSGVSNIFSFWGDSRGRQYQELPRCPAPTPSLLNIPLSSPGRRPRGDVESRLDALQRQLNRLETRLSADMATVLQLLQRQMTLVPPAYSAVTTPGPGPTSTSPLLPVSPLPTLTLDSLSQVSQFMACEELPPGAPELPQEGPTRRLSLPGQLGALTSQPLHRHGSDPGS

[17] = Lipophilicity, log D of compound at pH 7 by HPLC analysis; format: physicochemical; details: buffer
[18] = test system: MDR1 (human); assay: Efflux ratio of apparent permeability across basolateral to apical membrane to apical to basolateral membrane in pig LLC-PK1 cells expressing human MDR1 at 1 uM; format: ADME, cell-based, Sus scrofa
[19] = Drug concentration in rat CSF at 10 mg/kg, po after 3 hrs; format: ADME, organism-based, Cerebrospinal fluid; details: read-out: Ct
[20] = Drug concentration in rat plasma at 10 mg/kg, po after 3 hrs; format: ADME, organism-based
[21] = molecular target: T4, Voltage-gated inwardly rectifying potassium channel KCNH2; assay: Inhibition of human ERG expressed in HEK cells by voltage clamp assay; format: toxicity, cell-based
[22] = Free drug concentration in cynomolgus monkey plasma; format: ADME, cell-free, Macaca fascicularis
[23] = Ratio of drug level in brain to plasma in rat; format: ADME; details: read-out: BPR
[24] = Free drug concentration in human plasma; format: ADME, cell-free
[25] = Free drug concentration in rat plasma; format: ADME, cell-free

IC50 [1]: 3 nM
Ki [2]: 2 nM
SMILES: C[C@]1(CF)C(=N)N[C@](C)(c2nc(NC(=O)c3ccc(C#N)cn3)ccc2F)CS1(=O)=O

SMILES: CC1(C)C(=N)N[C@](C)(c2nc(NC(=O)c3ccc(C#N)cn3)ccc2F)CS1(=O)=O
Activity [3]: 88%

IC50 [1]: 171 nM
Ki [2]: 12 nM
SMILES: COc1cnc(C(=O)Nc2ccc(F)c([C@]3(C)CS(=O)(=O)[C@](C)(C(F)F)C(=N)N3)c2)cn1

IC50 [1]: 14 nM
Ki [2]: 4 nM
SMILES: COc1cnc(C(=O)Nc2ccc(F)c([C@]3(C)CS(=O)(=O)[C@](C)(CF)C(=N)N3)c2)cn1

IC50 [4]: > 30000 nM
IC50 [1]: 3 nM
Ki [2]: 1 nM
Ki [6]: > 30500 nM
Ki [7]: > 19100 nM
Ki [8]: 5880 nM
EC50 [10]: 130 nM
EC50 [12]: 20 nM
SMILES: Cc1cc(C#N)cnc1C(=O)Nc1ccc(F)c([C@]2(C)CS(=O)(=O)[C@@](C)(C(F)F)C(=N)N2)n1
ED50 [5]: 3 mg/kg
Activity [3]: 91%
ED50 [9]: < 3 mg/kg
IC50 [11]: 7060 nM

IC50 [1]: 78 nM
Ki [2]: 10 nM
efflux ratio at 1 µM [13]: 3.7
pKa [14]: 5.95
Papp [15]: 32.7 ×10⁻⁶ cm/s
logD [17]: 2.5
efflux ratio at 1 µM [18]: 0.8
SMILES: C[C@@]1(C(F)F)C(=N)N[C@](C)(c2nc(NC(=O)c3ccc(C#N)cn3)ccc2F)CS1(=O)=O
IC50 [16]: 24200 nM

IC50 [1]: 11 nM
Ki [2]: 3 nM
SMILES: Cc1cc(C#N)cnc1C(=O)Nc1ccc(F)c([C@]2(C)CS(=O)(=O)[C@](C)(C(F)F)C(=N)N2)n1
Activity [3]: 80%

IC50 [1]: 11 nM
Ki [2]: 3 nM
concentration at 3 h [19]: 8 nM
efflux ratio at 1 µM [13]: 8.6
concentration at 3 h [20]: 154 nM
pKa [14]: 6.19
Papp [15]: 28.6 ×10⁻⁶ cm/s
logD [17]: 2.3
efflux ratio at 1 µM [18]: 1
SMILES: C[C@@]1(c2nc(NC(=O)c3ccc(C#N)cn3)ccc2F)CS(=O)(=O)[C@@](C)(C(F)F)C(=N)N1
Activity [3]: 80%
IC50 [16]: 2420 nM

fraction unbound [22]: 0.18
Kp [23]: 0.23
fraction unbound [24]: 0.24
pKa [14]: 7.5
EC50 [10]: 110 nM
Papp [15]: 23 ×10⁻⁶ cm/s
fraction unbound [25]: 0.21
EC50 [12]: 41 nM
SMILES: CN1C(N)=N[C@](C)(c2cc(NC(=O)c3ccc(F)cn3)ccc2F)CS1(=O)=O [VERUBECESTAT]
IC50 [21]: 2200 nM
ED50 [5]: 0.69 mg/kg
ED50 [9]: < 3 mg/kg

IC50 [1]: 2 nM
Ki [2]: 2 nM
SMILES: Cc1cc(C#N)cnc1C(=O)Nc1ccc(F)c([C@]2(C)CS(=O)(=O)[C@](C)(CF)C(=N)N2)n1
Activity [3]: 68%

IC50 [1]: 30 nM
Ki [2]: 3 nM
SMILES: COc1cnc(C(=O)Nc2ccc(F)c([C@]3(C)CS(=O)(=O)[C@@](C)(C(F)F)C(=N)N3)c2)cn1

EC50 [10]: 15 nM
EC50 [12]: 23 nM
SMILES: COc1cnc(C(=O)Nc2ccc(F)c([C@]3(C)CS(=O)(=O)C(C)(C)C(N)=N3)c2)cn1
ED50 [5]: 1.2 mg/kg
ED50 [9]: 0.3 mg/kg

IC50 [1]: 1 nM
Ki [2]: 1 nM
SMILES: Cc1cc(C#N)cnc1C(=O)Nc1ccc(F)c([C@]2(C)CS(=O)(=O)[C@@](C)(CF)C(=N)N2)n1
Activity [3]: 92%

IC50 [1]: 7 nM
Ki [2]: 3 nM
SMILES: C[C@@]1(c2nc(NC(=O)c3ccc(C#N)cn3)ccc2F)CS(=O)(=O)[C@](C)(CF)C(=N)N1

IC50 [1]: 12 nM
Ki [2]: 5 nM
SMILES: COc1cnc(C(=O)Nc2ccc(F)c([C@]3(C)CS(=O)(=O)[C@@](C)(CF)C(=N)N3)c2)cn1
